Where “and” joins values, the source holds several entries; their conditions need not be identical. Equal entries are not always repeated.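 Method: 48-hour compound exposure of cells in 96-well plates, five concentrations, linear interpolation of endpoints. At the GI50, growth is halved. TGI is the concentration that stops growth completely.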
Tests used:
Test in all cases: growth of human tumour cells (NCI), 48 h
[1] = tested on: UACC-62 melanoma
[2] = tested on: ACHN renal
[3] = tested on: LOX IMVI melanoma
[4] = tested on: UO-31 renal
[5] = tested on: HOP-92 NSCLC
[6] = tested on: SW-620 colon
[7] = tested on: SK-OV-3 ovarian
[8] = tested on: MALME-3M melanoma
[9] = tested on: SF-539 CNS
[10] = tested on: SK-MEL-2 melanoma

Structure (SMILES) | GI50 [1] | TGI [1] | GI50 [2] | GI50 [3] | TGI [3] | GI50 [4] | TGI [4] | GI50 [5] | TGI [5] | GI50 [6] | TGI [6] | GI50 [7] | TGI [7] | GI50 [8] | TGI [8] | GI50 [9] | TGI [9] | GI50 [10] | TGI [10] | TGI [2]
Oc1cccc(-c2nc(N3CCOCC3)c3oc4ncccc4c3n2)c1 | 1.05 µM and 0.471 µM | 3.03 µM and 1.64 µM | 0.0878 µM and 0.164 µM | 0.158 µM and 0.151 µM | 2.33 µM and 3.02 µM | 0.0354 µM and 0.0315 µM | 0.571 µM and 0.449 µM | 0.0237 µM and 0.0243 µM | 0.131 µM and 0.216 µM | 0.344 µM and 0.353 µM | > 100 µM | 0.0912 µM and 0.0819 µM | 0.606 µM and 0.393 µM | 0.0373 µM and 0.0287 µM | 0.395 µM and 0.264 µM | 0.137 µM and 0.131 µM | 0.594 µM and 0.635 µM | 0.147 µM and 0.295 µM | 0.641 µM and 1.92 µM | –
Cc1cc2c(-c3nc4ccccn4c3NC34CC5CC(CC(C5)C3)C4)c(O)c(O)cc2c(O)c1-c1c(C)cc2c(-c3nc4ccccn4c3NC34CC5CC(CC(C5)C3)C4)c(O)c(O)cc2c1O | 0.521 µM | 1.91 µM | 0.785 µM | 0.412 µM | 3.38 µM | 0.657 µM | 4.16 µM | 0.616 µM | 1.88 µM | 0.881 µM | > 25 µM | 0.749 µM | 2.3 µM | 0.574 µM | > 25 µM | 0.671 µM | 2.98 µM | 0.802 µM | 6.25 µM | 2.88 µM
NC1(C(=O)O)CSSC1 | 4.53 µM | 20.1 µM | 3.63 µM | 3.24 µM | 14.8 µM | 3.68 µM | 34.4 µM | 14.3 µM | 68.7 µM | 10.4 µM | > 100 µM | 20.3 µM | 82.5 µM | 2.77 µM | 7.12 µM | 7.55 µM | > 100 µM | 2.66 µM | 7.95 µM | 14.2 µM
COc1ccc(-c2nn3ncccc3c2-c2ccnc(Nc3cccc(C(F)(F)F)c3)n2)cc1 | 7.86 µM | > 25 µM | 6.7 µM | 6.53 µM | > 25 µM | 4.83 µM | > 22.9 µM | 3.03 µM | 16.1 µM | 10.8 µM | > 25 µM | 7.76 µM | > 25 µM | 10.2 µM | > 25 µM | 13.8 µM | > 25 µM | 8.11 µM | 21.3 µM | > 25 µM
Cc1cc(N(CCC#N)CCC#N)ccc1/C=C/C(=O)Nc1ccccc1Cl | – | > 100 µM | – | – | > 100 µM | – | > 100 µM | – | > 100 µM | – | > 100 µM | – | > 100 µM | – | > 100 µM | – | > 100 µM | – | > 100 µM | > 100 µM
Cc1nnc(N=Nc2c(O)[nH]c3ccccc23)[nH]c1=O | – | > 100 µM | – | – | > 100 µM | – | > 100 µM | – | > 100 µM | – | > 100 µM | – | > 100 µM | – | > 100 µM | – | > 100 µM | – | > 100 µM | > 100 µM
CCOc1ccccc1NC(=O)CCC(=O)NN | – | > 100 µM | – | – | > 100 µM | – | > 100 µM | – | > 100 µM | – | > 100 µM | – | > 100 µM | – | > 100 µM | – | > 100 µM | – | > 100 µM | > 100 µM
CCOC(=O)C(=Cc1c(-c2ccccc2)[nH]c2ccccc12)C(=O)OCC | 4.64 µM | 21.7 µM | 4.34 µM | 5.58 µM | 19.4 µM | 3.92 µM | 17.1 µM | 5.47 µM | > 29.8 µM | 5.57 µM | 22.1 µM | 13.6 µM | 49.2 µM | 8.09 µM | 22.3 µM | 14.4 µM | 30.9 µM | 4.6 µM | 17.3 µM | 23.6 µM
NCCn1c2c(c3ccccc3c1=O)C(=O)c1ccccc1-2 | 0.833 µM | 5.69 µM | < 0.0453 µM | 0.347 µM | 1.78 µM | 0.458 µM | 5.33 µM | 0.626 µM | 6.24 µM | 0.147 µM | 4.32 µM | 0.528 µM | 2.55 µM | 0.577 µM | 3.2 µM | 0.211 µM | 1.06 µM | 2.7 µM | 9.71 µM | 0.31 µM
CN1C(=O)CC2(C)c3cc(C=O)ccc3N(C)C12 (centres undefined) | – | > 100 µM | – | – | > 100 µM | – | > 100 µM | – | > 100 µM | – | > 100 µM | – | > 100 µM | – | > 100 µM | – | > 100 µM | – | > 100 µM | > 100 µM
C=CCN(N=O)C(=O)ON1C(=O)CCC1=O | – | > 100 µM | – | – | > 100 µM | – | > 100 µM | – | > 100 µM | – | > 100 µM | – | > 100 µM | – | > 100 µM | – | > 100 µM | – | > 100 µM | > 100 µM
c1cc2ccc1C1NCCCN1CCN1CCCNC1c1ccc(cc1)C1NCCCN1CCN1CCCNC21 (centres undefined) | – | > 100 µM | – | – | > 100 µM | – | > 100 µM | – | > 100 µM | – | 48.5 µM | – | > 100 µM | – | > 100 µM | – | > 100 µM | – | > 100 µM | > 100 µM
COc1ccc(-c2cn(-c3cc(OC)c(OC)c(OC)c3)c(=O)n2-c2ccccc2)cc1 | 53 µM | > 100 µM | > 100 µM | > 100 µM | > 100 µM | > 100 µM | > 100 µM | 11.6 µM | 36.9 µM | > 100 µM | > 100 µM | > 100 µM | > 100 µM | 38.5 µM | > 100 µM | > 100 µM | > 100 µM | > 100 µM | > 100 µM | > 100 µM
Cc1cc(Nc2cc(N3CCN(C)CC3)nc(C#Cc3ccccc3)n2)n[nH]1 | 2.45 µM | 15.1 µM | 1.06 µM | 1.85 µM | 12.8 µM | 1.07 µM | 7.28 µM | 0.843 µM | 4.84 µM | 2.72 µM | 14.4 µM | 2.16 µM | 13.2 µM | 2 µM | 13.9 µM | 2.79 µM | 10.8 µM | 1.24 µM | 7.9 µM | 11.7 µM
O=C(/C(=N/Nc1cn[nH]c(=O)c1Cl)c1ccccc1)c1ccccc1 | – | 53.5 µM | – | – | 66.9 µM | – | > 100 µM | – | > 100 µM | – | > 100 µM | – | > 100 µM | – | > 100 µM | – | 71.1 µM | – | > 100 µM | > 100 µM
